Measurements taken from paper PMC5218480 (PLoS ONE, 2017).

Test system: MV-4-11 cells
Assay: Gene expression microarray analysis (Affymetrix PrimeView) and GSEA
Type: cell-based, human
Design: RFU PODN (11730768_x_at) / Fold change /veh PODN (11730768_x_at) / RFU LINC00158 (11744669_a_at) / Fold change /veh LINC00158 (11744669_a_at) / RFU DUSP10 (11751237_a_at) / Fold change /veh DUSP10 (11751237_a_at) / RFU ID3 (11757404_x_at) / Fold change /veh ID3 (11757404_x_at) / RFU PLEKHG5 (11737974_s_at) / Fold change /veh PLEKHG5 (11737974_s_at) / RFU LRRC4B (11730491_at) / Fold change /veh LRRC4B (11730491_at) / RFU GIMAP4 (11747438_a_at) / Fold change /veh GIMAP4 (11747438_a_at) / RFU KRT8 (11758183_x_at) / Fold change /veh KRT8 (11758183_x_at) / RFU CNN1 (11734310_a_at) / Fold change /veh CNN1 (11734310_a_at) / RFU VPS37D (11726825_at) / Fold change /veh VPS37D (11726825_at) / RFU C10orf10 (11716522_x_at) / Fold change /veh C10orf10 (11716522_x_at) / RFU KIR2DL2 /// KIR2DL4 /// KIR2DL5A /// KIR2DL5B /// KIR2DS1 /// KIR2DS2 /// KIR2DS3 /// KIR2DS4 /// KIR3DL3 /// KIR3DL3 /// KIR3DS1 (11738374_at) / Fold change /veh KIR2DL2 /// KIR2DL4 /// KIR2DL5A /// KIR2DL5B /// KIR2DS1 /// KIR2DS2 /// KIR2DS3 /// KIR2DS4 /// KIR3DL3 /// KIR3DL3 /// KIR3DS1 (11738374_at) / RFU C1QL1 (11718748_at) / Fold change /veh C1QL1 (11718748_at) / RFU TMPRSS4 (11747572_a_at) / Fold change /veh TMPRSS4 (11747572_a_at) / RFU HAMP (11756126_x_at) / Fold change /veh HAMP (11756126_x_at) / RFU RNFT2 (11725882_a_at) / Fold change /veh RNFT2 (11725882_a_at) / RFU NR4A2 (11747474_a_at) / Fold change /veh NR4A2 (11747474_a_at) / RFU ABCC12 (11746883_a_at) / Fold change /veh ABCC12 (11746883_a_at) / RFU TMEM136 (11760407_x_at) / Fold change /veh TMEM136 (11760407_x_at) / RFU CLDN22 /// WWC2 (11732394_at) / Fold change /veh CLDN22 /// WWC2 (11732394_at) / RFU HLA-DPB1 (11760878_x_at) / Fold change /veh HLA-DPB1 (11760878_x_at) / RFU SPINT1 (11716480_a_at) / Fold change /veh SPINT1 (11716480_a_at) / RFU GAP43 (11754022_s_at) / Fold change /veh GAP43 (11754022_s_at) / RFU A4GNT (11735810_at) / Fold change /veh A4GNT (11735810_at) / RFU PRB3 (11715151_x_at) / Fold change /veh PRB3 (11715151_x_at) / RFU TUBB4B (11761932_at) / Fold change /veh TUBB4B (11761932_at) / RFU CAPN14 (11732068_a_at) / Fold change /veh CAPN14 (11732068_a_at) / RFU TMCC2 (11721928_a_at) / Fold change /veh TMCC2 (11721928_a_at) / RFU IRGQ (11745062_a_at) / Fold change /veh IRGQ (11745062_a_at) / RFU FAM174B (11720279_a_at) / Fold change /veh FAM174B (11720279_a_at) / RFU TMPRSS4 (11748680_a_at) / Fold change /veh TMPRSS4 (11748680_a_at) / RFU FAM212B (11763350_a_at) / Fold change /veh FAM212B (11763350_a_at) / RFU PLEKHG5 (11743358_a_at) / Fold change /veh PLEKHG5 (11743358_a_at) / RFU ZSCAN30 (11745921_a_at) / Fold change /veh ZSCAN30 (11745921_a_at) / RFU CMKLR1 (11741424_a_at) / Fold change /veh CMKLR1 (11741424_a_at) / RFU LOC101060620 /// MAPK8IP1 (11723275_at) / Fold change /veh LOC101060620 /// MAPK8IP1 (11723275_at) / RFU SPTSSB (11747773_x_at) / Fold change /veh SPTSSB (11747773_x_at) / RFU PRSS12 (11739890_at) / Fold change /veh PRSS12 (11739890_at) / RFU BIN1 (11741810_x_at) / Fold change /veh BIN1 (11741810_x_at) / RFU WNT11 (11732464_a_at) / Fold change /veh WNT11 (11732464_a_at) / RFU C10orf10 (11716521_a_at) / Fold change /veh C10orf10 (11716521_a_at) / RFU C5orf56 (11738089_at) / Fold change /veh C5orf56 (11738089_at) / RFU CYB561 (11721691_x_at) / Fold change /veh CYB561 (11721691_x_at) / RFU ANKRD19P (11752326_a_at) / Fold change /veh ANKRD19P (11752326_a_at) / RFU OR2T12 /// OR2T33 /// OR2T8 (11738714_s_at) / Fold change /veh OR2T12 /// OR2T33 /// OR2T8 (11738714_s_at) / RFU VCAN (11748164_a_at) / Fold change /veh VCAN (11748164_a_at) / RFU JSRP1 (11732532_at) / Fold change /veh JSRP1 (11732532_at) / RFU KRTAP10-11 (11738290_x_at) / Fold change /veh KRTAP10-11 (11738290_x_at) / RFU MYO3A (11730013_a_at) / Fold change /veh MYO3A (11730013_a_at) / RFU EBF3 (11725865_a_at) / Fold change /veh EBF3 (11725865_a_at) / RFU CAMK2N1 (11719241_x_at) / Fold change /veh CAMK2N1 (11719241_x_at) / RFU C5orf56 (11738088_a_at) / Fold change /veh C5orf56 (11738088_a_at) / RFU OLFML3 (11715873_a_at) / Fold change /veh OLFML3 (11715873_a_at) / RFU LOC100653217 /// NTM (11731650_a_at) / Fold change /veh LOC100653217 /// NTM (11731650_a_at) / RFU MAPK11 (11762145_a_at) / Fold change /veh MAPK11 (11762145_a_at) / RFU FIZ1 (11724087_x_at) / Fold change /veh FIZ1 (11724087_x_at) / RFU OASL (11726364_x_at) / Fold change /veh OASL (11726364_x_at) / RFU SOX15 (11748057_x_at) / Fold change /veh SOX15 (11748057_x_at) / RFU CD79A (11719716_a_at) / Fold change /veh CD79A (11719716_a_at) / RFU HIST1H1D (11736915_at) / Fold change /veh HIST1H1D (11736915_at) / RFU CASKIN2 (11723855_a_at) / Fold change /veh CASKIN2 (11723855_a_at) / RFU LOC730098 (11760151_x_at) / Fold change /veh LOC730098 (11760151_x_at) / RFU OR4N2 (11742367_at) / Fold change /veh OR4N2 (11742367_at) / RFU PRRT2 (11749266_a_at) / Fold change /veh PRRT2 (11749266_a_at) / RFU SNX32 (11753110_a_at) / Fold change /veh SNX32 (11753110_a_at) / RFU CDHR5 (11726645_a_at) / Fold change /veh CDHR5 (11726645_a_at) / RFU RCAN1 (11760418_a_at) / Fold change /veh RCAN1 (11760418_a_at) / RFU FAM167A (11723789_a_at) / Fold change /veh FAM167A (11723789_a_at) / RFU FAM26E (11764081_at) / Fold change /veh FAM26E (11764081_at) / RFU ISYNA1 (11749810_s_at) / Fold change /veh ISYNA1 (11749810_s_at) / RFU ACY1 (11761880_at) / Fold change /veh ACY1 (11761880_at) / RFU 11764098_at / Fold change /veh 11764098_at / RFU SAMD14 (11745864_x_at) / Fold change /veh SAMD14 (11745864_x_at) / RFU NPB (11741838_a_at) / Fold change /veh NPB (11741838_a_at) / RFU TMPRSS6 (11731388_a_at) / Fold change /veh TMPRSS6 (11731388_a_at) / RFU KRTAP10-2 (11738614_at) / Fold change /veh KRTAP10-2 (11738614_at) / RFU ARHGAP8 /// PRR5-ARHGAP8 (11727945_x_at) / Fold change /veh ARHGAP8 /// PRR5-ARHGAP8 (11727945_x_at) / RFU KRTAP5-7 /// NADSYN1 (11734609_at) / Fold change /veh KRTAP5-7 /// NADSYN1 (11734609_at) / RFU RASL12 (11751679_a_at) / Fold change /veh RASL12 (11751679_a_at) / RFU CDKN2B (11736163_a_at) / Fold change /veh CDKN2B (11736163_a_at) / RFU PRF1 (11729649_at) / Fold change /veh PRF1 (11729649_at) / RFU, ZNF638 /// ZNF638-IT1 / Fold change vs veh, ZNF638 /// ZNF638-IT1 / RFU, PANK3 / Fold change vs veh, PANK3 / RFU, SH3YL1 / Fold change vs veh, SH3YL1 / RFU, ZEB2 / Fold change vs veh, ZEB2 / RFU, NRIP1 / Fold change vs veh, NRIP1 / RFU, PTTG1IP / Fold change vs veh, PTTG1IP / RFU, CAPN2 / Fold change vs veh, CAPN2 / RFU, MED14 / Fold change vs veh, MED14 / RFU, SNORA58 / Fold change vs veh, SNORA58 / RFU, C1orf63 / Fold change vs veh, C1orf63 / RFU, LRRFIP1 / Fold change vs veh, LRRFIP1 / RFU, NDUFAF7 / Fold change vs veh, NDUFAF7 / RFU, SLC12A2 / Fold change vs veh, SLC12A2 / RFU, IBTK / Fold change vs veh, IBTK / RFU, ESF1 / Fold change vs veh, ESF1 / Fold change vs veh, TMEM50B / RFU, TAOK1 / Fold change vs veh, TAOK1 / RFU, ACBD3 / Fold change vs veh, ACBD3 / RFU, TMA16 / Fold change vs veh, TMA16 / RFU, RWDD3 / Fold change vs veh, RWDD3 / RFU, BCAT1 / Fold change vs veh, BCAT1 / RFU, EDEM3 / Fold change vs veh, EDEM3 / RFU, TMEM33 / Fold change vs veh, TMEM33 / RFU, WDR75 / Fold change vs veh, WDR75 / RFU, AHCTF1 / Fold change vs veh, AHCTF1 / RFU, TFRC / Fold change vs veh, TFRC / RFU, ZDHHC17 / Fold change vs veh, ZDHHC17 / RFU, NOM1 / Fold change vs veh, NOM1 / RFU, ARL8B / Fold change vs veh, ARL8B / RFU, ZBTB11 / Fold change vs veh, ZBTB11 / RFU, TAMM41 / Fold change vs veh, TAMM41 / RFU, KIAA1704 /// LOC100996395 / Fold change vs veh, KIAA1704 /// LOC100996395 / RFU, ING1 / Fold change vs veh, ING1 / RFU, TRMT61B / Fold change vs veh, TRMT61B / RFU, FUBP3 / Fold change vs veh, FUBP3 / RFU, TP53 / Fold change vs veh, TP53 / RFU, TNKS2 / Fold change vs veh, TNKS2 / RFU, ZFP14 / Fold change vs veh, ZFP14 / RFU, ACTR2 / Fold change vs veh, ACTR2 / RFU, PPP3R1 / Fold change vs veh, PPP3R1 / RFU, PIK3R1 / Fold change vs veh, PIK3R1 / RFU, HNRNPA1 / Fold change vs veh, HNRNPA1 / RFU, RNF170 / Fold change vs veh, RNF170 / RFU, ZNF28 / Fold change vs veh, ZNF28 / RFU, RNGTT / Fold change vs veh, RNGTT / RFU, OGT / Fold change vs veh, OGT / RFU, BRD1 / Fold change vs veh, BRD1 / RFU, MARS / Fold change vs veh, MARS / RFU, ZNF655 / Fold change vs veh, ZNF655 / RFU, FAHD1 / Fold change vs veh, FAHD1 / RFU, BDP1 / Fold change vs veh, BDP1 / RFU, LRRCC1 / Fold change vs veh, LRRCC1 / RFU, ARID1A / Fold change vs veh, ARID1A / RFU, ZNF146 / Fold change vs veh, ZNF146 / RFU, ZNF330 / Fold change vs veh, ZNF330 / RFU, GPN3 / Fold change vs veh, GPN3 / RFU, C9orf123 / Fold change vs veh, C9orf123 / RFU, N4BP2L2 / Fold change vs veh, N4BP2L2 / RFU, ARFIP1 / Fold change vs veh, ARFIP1 / RFU, FAM179B / Fold change vs veh, FAM179B / RFU, BCL10 / Fold change vs veh, BCL10 / RFU, UHRF1BP1L / Fold change vs veh, UHRF1BP1L / RFU, BET1 / Fold change vs veh, BET1 / RFU, CNOT2 / Fold change vs veh, CNOT2 / RFU, ZNF268 / Fold change vs veh, ZNF268 / Fold change vs veh, ZNF507 / RFU, DGCR2 / Fold change vs veh, DGCR2 / RFU, WDSUB1 / Fold change vs veh, WDSUB1 / Fold change vs veh, HSP90B1 /// MIR3652 / RFU, ADSS / Fold change vs veh, ADSS / RFU, GK / Fold change vs veh, GK / RFU, ZNF148 / Fold change vs veh, ZNF148 / RFU, TAF9 / Fold change vs veh, TAF9 / RFU, SLC1A5 / Fold change vs veh, SLC1A5 / RFU, SLMO2 / Fold change vs veh, SLMO2 / RFU, ABCC4 / Fold change vs veh, ABCC4 / RFU, LOC101060439 /// RAP1B / Fold change vs veh, LOC101060439 /// RAP1B / RFU, RFX7 / Fold change vs veh, RFX7 / RFU, GTPBP10 / Fold change vs veh, GTPBP10 / RFU, CNEP1R1 / Fold change vs veh, CNEP1R1 / RFU, BIVM-ERCC5 /// ERCC5 / Fold change vs veh, BIVM-ERCC5 /// ERCC5 / RFU, ILF3 / Fold change vs veh, ILF3 / RFU 11762660_at / Fold change /veh 11762660_at / RFU VCAN (11757783_s_at) / Fold change /veh VCAN (11757783_s_at) / RFU DDX43 (11728927_at) / Fold change /veh DDX43 (11728927_at) / RFU KRT8 (11758188_x_at) / Fold change /veh KRT8 (11758188_x_at) / RFU NKD1 (11759106_at) / Fold change /veh NKD1 (11759106_at) / RFU SRD5A1 (11742802_a_at) / Fold change /veh SRD5A1 (11742802_a_at) / RFU TPSAB1 /// TPSB2 (11721975_s_at) / Fold change /veh TPSAB1 /// TPSB2 (11721975_s_at) / RFU GSTM3 (11746129_a_at) / Fold change /veh GSTM3 (11746129_a_at) / RFU IL23R (11737362_x_at) / Fold change /veh IL23R (11737362_x_at) / RFU TMEM51 (11727254_a_at) / Fold change /veh TMEM51 (11727254_a_at) / RFU PIWIL2 (11732686_x_at) / Fold change /veh PIWIL2 (11732686_x_at) / RFU ORM1 (11744905_x_at) / Fold change /veh ORM1 (11744905_x_at) / RFU CCDC152 (11743942_at) / Fold change /veh CCDC152 (11743942_at) / RFU ECM1 (11717891_a_at) / Fold change /veh ECM1 (11717891_a_at) / RFU IL23R (11748794_a_at) / Fold change /veh IL23R (11748794_a_at) / RFU TNFAIP8L3 (11732012_x_at) / Fold change /veh TNFAIP8L3 (11732012_x_at) / RFU MBOAT4 (11741988_at) / Fold change /veh MBOAT4 (11741988_at) / RFU 11764193_at / Fold change /veh 11764193_at / RFU TMEM53 (11763286_at) / Fold change /veh TMEM53 (11763286_at) / RFU MAGEB2 (11727129_at) / Fold change /veh MAGEB2 (11727129_at) / RFU TMEM200A (11744735_a_at) / Fold change /veh TMEM200A (11744735_a_at) / RFU CCDC152 (11751479_a_at) / Fold change /veh CCDC152 (11751479_a_at) / RFU FAM211A (11726209_a_at) / Fold change /veh FAM211A (11726209_a_at) / RFU RGS16 (11746705_a_at) / Fold change /veh RGS16 (11746705_a_at) / RFU VCAN (11755009_s_at) / Fold change /veh VCAN (11755009_s_at) / RFU RHOB (11743442_s_at) / Fold change /veh RHOB (11743442_s_at) / RFU RGS16 (11720943_a_at) / Fold change /veh RGS16 (11720943_a_at) / RFU RGS16 (11720944_at) / Fold change /veh RGS16 (11720944_at) / RFU, VPS4B / Fold change vs veh, VPS4B / RFU, CREB1 / Fold change vs veh, CREB1 / RFU, DNAJC13 / Fold change vs veh, DNAJC13 / RFU, GNAQ / Fold change vs veh, GNAQ / RFU, CDK5R1 / Fold change vs veh, CDK5R1 / RFU, ZRANB3 / Fold change vs veh, ZRANB3 / RFU, CUL4A / Fold change vs veh, CUL4A / RFU, CCNY / Fold change vs veh, CCNY / RFU, UFL1 / Fold change vs veh, UFL1 / RFU, COG3 / Fold change vs veh, COG3 / RFU, DIAPH2 / Fold change vs veh, DIAPH2 / RFU, SKA2 / Fold change vs veh, SKA2 / RFU, AFF3 / Fold change vs veh, AFF3 / RFU, LMF1 / Fold change vs veh, LMF1 / RFU, IPO11 / Fold change vs veh, IPO11 / RFU, DFFB / Fold change vs veh, DFFB / RFU, FOXP1 / Fold change vs veh, FOXP1 / RFU, CARD8 / Fold change vs veh, CARD8 / RFU, STRN3 / Fold change vs veh, STRN3 / RFU, ADK / Fold change vs veh, ADK / RFU, RASSF2 / Fold change vs veh, RASSF2 / RFU, WIPF1 / Fold change vs veh, WIPF1 / RFU, LARP1B / Fold change vs veh, LARP1B / RFU, RASA1 / Fold change vs veh, RASA1 / RFU, RB1 / Fold change vs veh, RB1 / RFU, PPFIA1 / Fold change vs veh, PPFIA1 / RFU, MAT2A / Fold change vs veh, MAT2A / RFU, CCT5 / Fold change vs veh, CCT5 / RFU, WDR92 / Fold change vs veh, WDR92 / RFU, CUX1 / Fold change vs veh, CUX1 / RFU, TTC7A / Fold change vs veh, TTC7A / RFU, TMEM135 / Fold change vs veh, TMEM135 / RFU, DEPTOR / Fold change vs veh, DEPTOR / RFU, CPM / Fold change vs veh, CPM / RFU, DNAJB6 / Fold change vs veh, DNAJB6 / RFU, CACNA2D3 / Fold change vs veh, CACNA2D3 / RFU, DTX4 / Fold change vs veh, DTX4 / RFU, TFCP2 / Fold change vs veh, TFCP2 / RFU, GMCL1 /// GMCL1P1 / Fold change vs veh, GMCL1 /// GMCL1P1 / RFU, AEBP2 / Fold change vs veh, AEBP2 / RFU, SNHG1 /// SNORD22 /// SNORD25 /// SNORD26 /// SNORD27 /// SNORD28 /// SNORD29 /// SNORD31 / Fold change vs veh, SNHG1 /// SNORD22 /// SNORD25 /// SNORD26 /// SNORD27 /// SNORD28 /// SNORD29 /// SNORD31 / Fold change (Aza/veh), C12orf56 (ProbeSet 11735607_a_at) / Fold change (ACY-1035/veh), C12orf56 (ProbeSet 11735607_a_at) / Fold change (Aza/veh), FGFR1OP (ProbeSet 11751329_s_at) / Fold change (ACY-1035/veh), FGFR1OP (ProbeSet 11751329_s_at) / Fold change (Aza/veh), VPS36 (ProbeSet 11739960_a_at) / Fold change (ACY-1035/veh), VPS36 (ProbeSet 11739960_a_at) / RFU SYPL1 (11715823_x_at) / Fold change /veh SYPL1 (11715823_x_at) / RFU IGFBP7 (11715501_s_at) / Fold change /veh IGFBP7 (11715501_s_at) / RFU REEP3 (11722064_at) / Fold change /veh REEP3 (11722064_at) / RFU IGLL1 (11728026_x_at) / Fold change /veh IGLL1 (11728026_x_at): dose or concentration left out as unconfirmed
Details: MV-4-11 cells, 48 hours

## Nc1ncn([C@@H]2O[C@H](CO)[C@@H](O)[C@H]2O)c(=O)n1 [azacitidine]
  Fold change /veh FAM211A (11726209_a_at): 1.26
